The text below walks through data of US8329726B2, “Inhibitors of VEGF receptor and HGF receptor signaling” (MethylGene Inc., priority 2005, dated 2012).

In one assay the test system is A549. The experiment in a line: A549 wound healing inhibition (HGF dependent migration). The format is cell-based. The conditions noted are these: Homo sapiens, A549 cells, read-out: A549 WOUND HEALING INHIB IC50. The text has this:
(§1) HGF has well known activity in terms of inducing scattering and migration (wound healing) (Wells et al., Cell Motil Cytoskeleton. 2005 November 62(3):180-94; Miura et al., Urology 2001 December 58(6):1064-9; Nishimura et al., Int J Urol. 1998 May 5(3):276-81; Wang et al., Mol Cancer Ther. 2003 November; 2(11):1085-92; and Christensen et al., Cancer Res. 2003 Nov. 1; 63(21):7345-55).

For assay [1], the target named is T1, recombinant human c-Met/HGF receptor (Homo sapiens, UniProt P08581).
T1 construct: His tag (pBlueBacHis2A vector); made in house; host or cells: Hi-5 cells (Trichoplusia ni), baculovirus
The assay can be described thus: In vitro receptor tyrosine kinase assay (DELFIA), c-Met/HGF receptor. The format is biochemical. The conditions noted are these: read-out: CMET IC50. On the procedure:
Cell pellets were frozen at −80° C. until purification was performed.
The coated plates were washed and stored at 4° C. […] After incubation, the kinase reactions were quenched with EDTA and the plates were washed.

A further assay has as its system DU145. The assay can be described thus: DU145 scattering inhibition (HGF dependent scattering). The format is cell-based. The conditions noted are these: Homo sapiens, DU-145; HGF dependent scattering, DU145 cells; read-out: DU145 SCATTERING INHIB IC50.
Source text: as §1

Another assay deals with T2, VEGF receptor KDR (Homo sapiens, UniProt P35968).
T2 construct: made in house; host or cells: Sf9 cells (Spodoptera frugiperda), baculovirus
The experiment in a line: In vitro receptor tyrosine kinase assay (DELFIA), VEGF receptor KDR. The format is biochemical. The following applies: read-out: VEGFR IC50.

T2 sequence (P35968 806-1356): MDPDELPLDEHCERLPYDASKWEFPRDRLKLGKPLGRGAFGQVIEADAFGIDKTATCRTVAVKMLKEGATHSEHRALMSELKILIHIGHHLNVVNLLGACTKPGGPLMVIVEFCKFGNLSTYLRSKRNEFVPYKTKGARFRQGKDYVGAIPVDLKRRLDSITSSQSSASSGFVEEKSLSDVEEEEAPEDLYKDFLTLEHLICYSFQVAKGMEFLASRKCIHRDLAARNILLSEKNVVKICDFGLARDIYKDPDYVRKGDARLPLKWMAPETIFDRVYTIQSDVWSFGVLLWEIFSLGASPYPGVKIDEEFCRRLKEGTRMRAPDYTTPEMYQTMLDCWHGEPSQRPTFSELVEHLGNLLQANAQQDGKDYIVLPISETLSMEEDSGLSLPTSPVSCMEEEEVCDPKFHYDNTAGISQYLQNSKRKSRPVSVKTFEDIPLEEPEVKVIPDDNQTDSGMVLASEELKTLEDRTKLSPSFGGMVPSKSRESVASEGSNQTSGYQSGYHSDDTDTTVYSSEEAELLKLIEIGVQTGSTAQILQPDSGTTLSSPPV
T1 sequence (P08581 1078-1337): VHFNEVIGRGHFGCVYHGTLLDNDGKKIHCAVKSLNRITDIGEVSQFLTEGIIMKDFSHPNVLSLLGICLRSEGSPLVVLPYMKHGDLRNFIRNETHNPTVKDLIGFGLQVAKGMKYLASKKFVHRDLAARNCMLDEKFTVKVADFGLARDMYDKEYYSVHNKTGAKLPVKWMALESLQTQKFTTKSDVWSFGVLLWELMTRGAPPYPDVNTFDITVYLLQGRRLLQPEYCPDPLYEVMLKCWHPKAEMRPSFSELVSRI

A word on the IC50: it is the midpoint of a concentration-inhibition curve. As to `COc1ccccc1NC(=O)CC(=O)Nc1ccc(Oc2ccnc3cc(-c4ccc(OCCN5CCOCC5)cc4)sc23)c(F)c1`, the IC50 with A549 is 1000 to 5000 nM; in assay [1], 50 to 250 nM; in the assay on DU145, 1000 to 5000 nM; on VEGF receptor KDR, under 50 nM.
For the compound `CCn1cnc(-c2cc3nccc(Oc4ccc(NC(=O)CC(=O)Nc5ccccc5)cc4F)c3s2)c1C`, the IC50 in the assay with A549 was under 1000 nM; in assay [1] it was under 50 nM; with DU145, under 1000 nM; at VEGF receptor KDR it was under 50 nM.
On to `COc1ccccc1CCNC(=O)C(=O)Nc1ccc(Oc2ccnc3cc(-c4cn(C)cn4)sc23)c(F)c1`, for which the IC50 in the assay on A549 is 5000 to 10000 nM; in assay [1] it was 250 to 500 nM; with DU145, over 10000 nM; on VEGF receptor KDR it was under 50 nM.
Regarding `COc1ccccc1CCNC(=O)C(=O)Nc1ccc(Oc2ccnc3cc(-c4ccc(OCCN5CCOCC5)c(OC)c4)sc23)c(F)c1`, the IC50 was 1000 to 5000 nM in the assay on A549, 250 to 500 nM in assay [1], over 10000 nM in the assay with DU145 and over 500 nM on VEGF receptor KDR.
Turning to `COc1ccccc1NC(=O)CC(=O)Nc1ccc(Oc2ccnc3cc(-c4cn(C)cn4)sc23)c(F)c1`, the IC50 with A549 was under 1000 nM; in assay [1] it was 50 to 250 nM; with DU145, under 1000 nM; at VEGF receptor KDR, under 50 nM.
For `Cn1cnc(-c2cc3nccc(Oc4ccc(NC(=O)CC(=O)Nc5ccccc5F)cc4F)c3s2)c1`, the IC50 in the assay with A549 was under 1000 nM; in assay [1] it was under 50 nM; with DU145 it was under 1000 nM; on VEGF receptor KDR, under 50 nM.
For `CCn1cnc(-c2cc3nccc(Oc4ccc(NC(=O)CC(=O)Nc5ccc(OC)cc5)cc4F)c3s2)c1`, the IC50 in the assay with A549 was under 1000 nM; in assay [1] it was 50 to 250 nM; in the assay on DU145, 1000 to 5000 nM; on VEGF receptor KDR, under 50 nM.
Turning to `CCn1cnc(-c2cc3nccc(Oc4ccc(NC(=O)CC(=O)Nc5cccc(F)c5)cc4F)c3s2)c1`, the IC50 was under 1000 nM in the assay on A549, 50 to 250 nM in assay [1], 1000 to 5000 nM in the assay with DU145 and under 50 nM on VEGF receptor KDR.
Take `CCn1cnc(-c2cc3nccc(Oc4ccc(NC(=O)CC(=O)Nc5cccc(OC)c5)cc4F)c3s2)c1`: the IC50 in the assay with A549 was 1000 to 5000 nM; in assay [1] it was 50 to 250 nM; in the assay on DU145, 1000 to 5000 nM; at VEGF receptor KDR, under 50 nM.
Regarding `CCn1cnc(-c2cc3nccc(Oc4ccc(NC(=O)C(=O)NCCc5ccccc5OC)cc4F)c3s2)c1`, the IC50 is 1000 to 5000 nM in the assay on A549, 50 to 250 nM in assay [1], over 10000 nM in the assay on DU145 and under 50 nM on VEGF receptor KDR.
`CCn1cnc(-c2cc3nccc(Oc4ccc(NC(=O)C(=O)NCCc5ccccc5F)cc4F)c3s2)c1`: the half-maximal inhibitory concentration (IC50) with A549 was 1000 to 5000 nM; in assay [1], 50 to 250 nM; with DU145, over 10000 nM; at VEGF receptor KDR, 50 to 250 nM.
Turning to `O=C(CC(=O)Nc1ccccc1F)Nc1ccc(Oc2ccnc3cc(C#CCN4CCOCC4)sc23)c(F)c1`, the IC50 is 1000 to 5000 nM with A549, 50 to 250 nM in assay [1], over 10000 nM with DU145 and 250 to 500 nM at VEGF receptor KDR.
With `COc1ccccc1NC(=O)CC(=O)Nc1ccc(Oc2ccnc3cc(C#CCN(C)C)sc23)c(F)c1`, the half-inhibitory concentration (IC50) with A549 is over 10000 nM; in assay [1], 50 to 250 nM; in the assay on DU145 it was over 10000 nM; on VEGF receptor KDR, 50 to 250 nM.
`COc1ccccc1NC(=O)CC(=O)Nc1ccc(Oc2ccnc3cc(C(=O)N4CC(O)C4)sc23)c(F)c1`: the IC50 in the assay on A549 was 1000 to 5000 nM; in assay [1], 50 to 250 nM; in the assay with DU145 it was 1000 to 5000 nM; on VEGF receptor KDR, under 50 nM.
Take `CN(C)CC#Cc1cc2nccc(Oc3ccc(NC(=O)CC(=O)Nc4ccccc4F)cc3F)c2s1`: the half-maximal inhibitory concentration (IC50) with A549 was over 10000 nM; in assay [1], 50 to 250 nM; in the assay on DU145, 1000 to 5000 nM; at VEGF receptor KDR, 50 to 250 nM.
As for `CCn1cncc1-c1cc2nccc(Oc3ccc(NC(=O)CC(=O)Nc4ccccc4F)cc3F)c2s1`, the IC50 with A549 lay within 1000 to 5000 nM; in assay [1], 50 to 250 nM; in the assay on DU145 it was 1000 to 5000 nM; on VEGF receptor KDR, 50 to 250 nM.
On to `CCn1cncc1-c1cc2nccc(Oc3ccc(NC(=O)CC(=O)Nc4ccccc4OC)cc3F)c2s1`, for which the IC50 is 1000 to 5000 nM with A549, 50 to 250 nM in assay [1], under 1000 nM in the assay on DU145 and 50 to 250 nM at VEGF receptor KDR.
In the case of `COc1ccccc1NC(=O)CC(=O)Nc1ccc(Oc2ccnc3cc(-c4cccc(CN5CCOCC5)c4)sc23)c(F)c1`, the IC50 in the assay with A549 is over 10000 nM; in assay [1] it was 50 to 250 nM; in the assay on DU145 it was 1000 to 5000 nM; on VEGF receptor KDR, 50 to 250 nM.
Take `CCn1cnc(-c2cc3nccc(Oc4ccc(NC(=O)N5CCN(c6ccccc6F)C5=O)cc4F)c3s2)c1`: the IC50 in the assay with A549 is under 1000 nM; in assay [1], under 50 nM; in the assay with DU145 it was under 1000 nM; on VEGF receptor KDR, under 50 nM.
For `CCn1cnc(-c2cc3nccc(Oc4ccc(NC(=O)N5CCN(c6ccccc6OC)C5=O)cc4F)c3s2)c1`, the IC50 was 1000 to 5000 nM in the assay on A549, under 50 nM in assay [1], under 1000 nM with DU145 and under 50 nM at VEGF receptor KDR.
Take `CCn1cnc(-c2cc3nccc(Oc4ccc(NC(=O)CC(Nc5ccc(F)cc5)C(F)(F)F)cc4F)c3s2)c1` (stereo not drawn): the IC50 in the assay on A549 was over 10000 nM; in assay [1] it was 250 to 500 nM; in the assay with DU145 it was 1000 to 5000 nM; at VEGF receptor KDR, 50 to 250 nM.
The corresponding values for `CN(C)Cc1ccc(-c2cc3nccc(Oc4ccc(NC(=O)N5CCN(c6ccc(F)cc6)C5=O)cc4F)c3s2)nc1` are under 1000 nM, under 50 nM, under 1000 nM and under 50 nM.
Take `CN(C)CCn1cnc(-c2cc3nccc(Oc4ccc(NC(=O)N5CCN(c6ccc(F)cc6)C5=O)cc4F)c3s2)c1`: the IC50 in the assay on A549 was under 1000 nM; in assay [1], under 50 nM; with DU145, under 1000 nM; at VEGF receptor KDR, under 50 nM.
Regarding `Cn1cnc(-c2cc3nccc(Oc4ccc(NC(=O)N5CCN(N6CCCCC6)C5=O)cc4F)c3s2)c1`, the half-inhibitory concentration (IC50) in the assay on A549 is 1000 to 5000 nM; in assay [1] it was under 50 nM; in the assay on DU145, under 1000 nM; at VEGF receptor KDR, 50 to 250 nM.
As for `O=C(Nc1ccc(Nc2ccnc3cc(-c4cn(CCN5CCCC5)cn4)sc23)c(F)c1)N1CCN(c2ccccc2)C1=O`, the half-maximal inhibitory concentration (IC50) was over 10000 nM in the assay with A549, under 50 nM in assay [1], over 10000 nM in the assay on DU145 and 250 to 500 nM at VEGF receptor KDR.
For the compound `Cn1cnc(-c2cc3nccc(Oc4ccc(NC(=O)N5CCN(C6CCCCC6)C5=O)cc4F)c3s2)c1`, the IC50 is 1000 to 5000 nM in the assay with A549, under 50 nM in assay [1], under 1000 nM in the assay with DU145 and under 50 nM at VEGF receptor KDR.
With `Cn1cnc(-c2cc3nccc(Oc4ccc(NC(=O)N5CCN(c6ccccc6)C5=S)cc4F)c3s2)c1`, the IC50 in the assay with A549 was over 10000 nM; in assay [1] it was over 500 nM; in the assay on DU145, over 10000 nM; at VEGF receptor KDR it was over 500 nM.
For `CCn1cnc(-c2cc3nccc(Oc4ccc(NC(=S)N5CCN(c6ccccc6)C5=O)cc4F)c3s2)c1`, the IC50 in the assay on A549 is under 1000 nM; in assay [1] it was under 50 nM; in the assay with DU145 it was under 1000 nM; on VEGF receptor KDR, under 50 nM.
Turning to `O=C1N(C(=S)Nc2ccc(Oc3ccnc4cc(-c5cn(CCN6CCCC6)cn5)sc34)c(F)c2)CCN1c1ccc(F)cc1`, the IC50 was under 1000 nM with A549, under 50 nM in assay [1], under 1000 nM in the assay on DU145 and under 50 nM on VEGF receptor KDR.
With `COc1ccccc1NC(=O)CC(Nc1ccc(Oc2ccnc3cc(-c4cn(C)cn4)sc23)c(F)c1)C(F)(F)F` (stereo not drawn), the half-inhibitory concentration (IC50) in the assay with A549 is 1000 to 5000 nM; in assay [1] it was over 500 nM; with DU145 it was over 10000 nM; on VEGF receptor KDR, under 50 nM.
`Cn1cnc(-c2cc3nccc(Oc4ccc(NC(=O)N5CCN(c6ccccc6)C5=O)cc4)c3s2)c1`: the IC50 with A549 is under 1000 nM; in assay [1] it was under 50 nM; in the assay on DU145, under 1000 nM; at VEGF receptor KDR, 50 to 250 nM.
In the case of `COCCNCc1ccc(-c2cc3nccc(Oc4ccc(NC(=O)N5CCN(c6ccc(F)cc6)C5=O)cc4F)c3s2)cc1`, the IC50 in the assay with A549 is under 1000 nM; in assay [1], under 50 nM; with DU145, under 1000 nM; at VEGF receptor KDR, under 50 nM.
For `CN(C)[C@H]1CCN(C(=O)c2cc3nccc(Oc4ccc(NC(=O)N5CCN(c6ccccc6)C5=O)cc4F)c3s2)C1`, the IC50 was under 1000 nM in the assay with A549, under 50 nM in assay [1], under 1000 nM in the assay on DU145 and under 50 nM at VEGF receptor KDR.
With `CC(=O)N1CC=C(c2cc3nccc(Oc4ccc(NC(=O)N5CCN(c6ccc(F)cc6)C5=O)cc4F)c3s2)CC1`, the IC50 was under 1000 nM in the assay with A549, under 50 nM in assay [1], under 1000 nM with DU145 and under 50 nM at VEGF receptor KDR.
Turning to `COCCNCc1ccc(-c2cc3nccc(Oc4ccc(NC(=O)N5CCN(c6ccccc6)C5=O)cc4F)c3s2)cc1`, the IC50 in the assay with A549 was under 1000 nM; in assay [1], under 50 nM; in the assay with DU145, under 1000 nM; on VEGF receptor KDR, under 50 nM.
Turning to `Cn1cnc(-c2cc3nccc(Oc4ccc(NC(CC(=O)Nc5ccc(F)cc5)C(F)(F)F)cc4)c3s2)c1` (stereo not drawn), the IC50 is 1000 to 5000 nM with A549, 50 to 250 nM in assay [1], 1000 to 5000 nM with DU145 and under 50 nM at VEGF receptor KDR.
